Tests used:
Format in all cases: in vivo
[1] = tested on: transgenic soybean plants expressing CYP21; assay: Icafolin herbicide injury rating, greenhouse spray, CYP21 soybean; details: for Percent Injury 14 DAT / Percent injury 21 DAT: Table 8; for Percent Injury 14 DAT / injury: 14 DAT
From the text: The codon-optimized genes were placed into plant transformation cassettes with each CYP coding sequence operably linked to a constitutive expression element comprising the promoter, leader, and intron of Arabidopsis thaliana Ubiquitin 3 (SEQ ID NO:14) and a Medicago truncatula photosystem II terminator (SEQ ID NO:15). Two plant transformation vectors were created, each comprising one of the CYP gene cassettes and an aadA selectable marker expression cassette, conferring resistance to the antibiotics spectinomycin and streptomycin. Soybean cultivar AG3555 seed-derived embryo explants were transformed with the vectors described above by Agrobacterium-mediated transformation using known methods in the art, and positive-transformed plantlets were selected based on growth in the presence of spectinomycin. Plantlets comprising single copy events were grown in the greenhouse to produce R1 seeds. R1 plants were subsequently selected for the homozygous CYP positive plants, either by molecular analysis of young leaf tissue or by seed chipping prior to planting. These selected plants were then screened for tolerance to the icafolin herbicide.
Herbicide tolerance screening was performed by selecting R1 plants at roughly the V2-V3 developmental stage and applying the icafolin herbicide in a track sprayer under standard greenhouse conditions. Two independent transgenic events per transgene were selected for screening. The herbicide was formulated with 1% v/v methylated seed oil (MSO) and 2.5% v/v ammonium sulfate (AMS) and sprayed with a XR nozzle at 15 gallons per […] (GPA) to mimic field conditions. The icafolin formulation was sprayed at two rates: 5 g active ingredient (ai)/hectare (ha) and 25 g ai/ha. The treated soybean plants were returned to the greenhouse following spray application and allowed to grow under standard conditions. The plants were rated for herbicide injury at approximately 14 and 21 days after treatment (DAT). Untreated transgenic plants and control (wild-type) plants were used for phenotypic comparison. The herbicide injury rating accounts for plant malformation, stunting, chlorosis, necrosis, and plant death relative to the untreated control plants. An injury rating of approximately 90% or above indicates nearly complete plant death. An injury rating of less than 30% indicates partial tolerance and an injury rating of less than 20% indicates good tolerance. Injury ratings were collected and analyzed, and photographs of representative plants were taken.

[2] = tested on: transgenic soybean plants expressing CYP14; assay: Icafolin herbicide injury rating, greenhouse spray, CYP14 soybean
From the text: (§1) The codon-optimized polynucleotide sequences were placed into plant transformation cassettes with each CYP coding sequence operably-linked to a constitutive expression element comprising the promoter, leader, and intron sequence of Arabidopsis thaliana Ubiquitin 3 (SEQ ID NO:14) and a Medicago truncatula photosystem II terminator (SEQ ID NO:15). Four plant transformation vectors were created, each comprising one of the CYP gene expression cassettes and an aadA selectable marker expression cassette, conferring resistance to the antibiotics spectinomycin and streptomycin. Soybean cultivar AG3555 seed-derived embryo explants were transformed with the vectors by Agrobacterium-mediated transformation using known methods in the art, and transformed plantlets were selected based on growth in the presence of spectinomycin. Plantlets comprising single copy events were grown in the greenhouse to produce R1 seeds. R1 plants were subsequently selected for homozygous CYP-positive plants, either by molecular analysis of young leaf tissue or by seed chipping prior to planting. These selected plants were then screened for tolerance to icafolin herbicide.
(§2) Herbicide tolerance screens were performed by selecting R1 plants at roughly the V2-V3 developmental stage and applying icafolin herbicide with a track sprayer under standard greenhouse conditions. Two independent transgenic events per transgene were screened. The herbicide was formulated with 1% v/v methylated seed oil (MSO) and 2.5% v/v ammonium sulfate (AMS) and sprayed with a XR nozzle at 15 gallons per […] (GPA) to mimic field conditions. The icafolin used in this Example and in the experiments described in Examples 2-4 was a mixture of the methyl ester forms of the 2R, 4R and 2S, 4S isomers. The icafolin formulation was sprayed at two rates: 5 g active ingredient (ai)/hectare (ha) and 25 g ai/ha. The herbicide treated soybean plants were returned to the greenhouse following spray application and allowed to grow under standard conditions. Plants were rated for herbicide injury at approximately 14 and 21 days after treatment (DAT). Untreated transgenic plants and control (wild-type) plants were used for phenotypic comparison. The herbicide injury rating accounts for plant malformation, stunting, chlorosis, necrosis, and plant death relative to the untreated control plants. An injury rating of approximately 90% or above indicates nearly complete plant death. An injury rating of less than 30% indicates partial tolerance, and an injury rating of less than 20% indicates good tolerance. Injury ratings were collected and analyzed, and photographs of representative plants were taken.

[3] = tested on: Soy transgenic plants expressing CYP15; assay: Field trial icafolin injury rating, CYP15 soybean; details: for Percent Plant Injury (21 DAT): averaged across repetitions, field locations and events
Experimental: Soy transgenic plants expressing CYP14 or CYP15 were assayed in small scale field trails across nine sites in the United States for tolerance to icafolin spray applications. The plants were grown in field plots and sprayed during the early vegetative stages when plants were roughly at the V3 stage. The icafolin formulation was sprayed at either a 5 g ai/ha or 25 g ai/ha application rate with 2 treatment replications per location. The plants were rated for herbicide injury at 7, 14, 21, and 28 days after treatment (DAT). A total of 12 events for CYP14 and 11 events for CYP15 were tested. An event transformed with a non-herbicide tolerance construct served as a negative control to provide a comparison for injury.

[4] = tested on: transgenic soybean plants expressing CYP13; assay: Icafolin herbicide injury rating, greenhouse spray, CYP13 soybean; details: for Percent Injury 15 DAT / Percent injury 21 DAT: Experiment 1
From the text: as §1, §2

[5] = CYP21 Event 344, 5 g ai/ha icafolin
[6] = CYP21 Event 344, 25 g ai/ha icafolin
[7] = CYP21 Event 502, 5 g ai/ha icafolin
[8] = CYP21 Event 502, 25 g ai/ha icafolin
[9] = CYP14 Event 267, 5 g ai/ha icafolin, Experiment 2
[10] = CYP14 Event 267, 5 g ai/ha icafolin, Experiment 1
[11] = CYP14 Event 267, 25 g ai/ha icafolin, Experiment 2
[12] = CYP14 Event 267, 25 g ai/ha icafolin, Experiment 1
[13] = CYP14 Event 280, 5 g ai/ha icafolin, Experiment 2
[14] = CYP14 Event 280, 25 g ai/ha icafolin, Experiment 2
[15] = CYP14 Event 309, 5 g ai/ha icafolin, Experiment 2
[16] = CYP14 Event 309, 5 g ai/ha icafolin, Experiment 1
[17] = CYP14 Event 309, 25 g ai/ha icafolin, Experiment 2
[18] = CYP14 Event 309, 25 g ai/ha icafolin, Experiment 1
[19] = CYP14 Event 324, 5 g ai/ha icafolin, Experiment 2
[20] = CYP14 Event 324, 25 g ai/ha icafolin, Experiment 2
[21] = CYP13 Event 943, 5 g ai/ha icafolin
[22] = CYP13 Event 943, 25 g ai/ha icafolin
[23] = CYP13 Event 982, 5 g ai/ha icafolin
[24] = CYP13 Event 982, 25 g ai/ha icafolin

C=C[C@]1(C(=O)N[C@H]2CO[C@@H](C(=O)OC)C2)CC(c2cc(F)cc(F)c2)=NO1 (relative stereo) [icafolin, methyl(2R*,4R*)-4-[[(5S)-3-(3,5-difluorophenyl)-5-vinyl-4H-isoxazole-5-carbonyl]amino]tetrahydrofuran-2-carboxylate]
Tolerance to icafolin ([1]; CYP21, overall): good tolerance (an injury rating of less than 20% indicates good tolerance) | Percent Injury 14 DAT [1, 5]: 2.5% | Percent injury 21 DAT [1, 5]: 5.0% | Percent Injury 14 DAT [1, 6]: 50% | Percent injury 21 DAT [1, 6]: 37.5% | Percent Injury 14 DAT [1, 7]: 7.5% | Percent injury 21 DAT [1, 7]: 5.0% | Percent Injury 14 DAT [1, 8]: 72.5% | Percent injury 21 DAT [1, 8]: 62.5% | injury ([1]; CYP21 events, 5 g ai/ha): less than 10% | injury ([1]; one CYP21 event, 25 g ai/ha): about 50% | injury ([1]; the other CYP21 event, 25 g ai/ha): about 72% | Percent Injury 14 DAT [2, 9]: 32% | Percent Injury 15 DAT [2, 10]: 14% | Percent injury 21 DAT [2, 10]: 12% | Percent injury 21 DAT [2, 9]: 20% | Percent Injury 14 DAT [2, 11]: 79% | Percent Injury 15 DAT [2, 12]: 39% | Percent injury 21 DAT [2, 12]: 47% | Percent injury 21 DAT [2, 11]: 57% | Percent Injury 14 DAT [2, 13]: 19% | Percent injury 21 DAT [2, 13]: 12% | Percent Injury 14 DAT [2, 14]: 64% | Percent injury 21 DAT [2, 14]: 35% | Percent Injury 14 DAT [2, 15]: 37% | Percent Injury 15 DAT [2, 16]: 33% | Percent injury 21 DAT [2, 16]: 36% | Percent injury 21 DAT [2, 15]: 22% | Percent Injury 14 DAT [2, 17]: 90% | Percent Injury 15 DAT [2, 18]: 71% | Percent injury 21 DAT [2, 18]: 81% | Percent injury 21 DAT [2, 17]: 89% | Percent Injury 14 DAT [2, 19]: 48% | Percent injury 21 DAT [2, 19]: 30% | Percent Injury 14 DAT [2, 20]: 75% | Percent injury 21 DAT [2, 20]: 66% | Tolerance to icafolin ([2]; in vivo): unexpected tolerance | injury ([2]; in vivo): less than 30% | Percent Plant Injury (21 DAT) ([3]; 5 g ai/ha icafolin): 8.7% | injury ratings ([3]; 5 g ai/ha, 21 DAT): below 15% | Tolerance to icafolin ([3]; 25 g ai/ha): Incomplete tolerance | Percent Plant Injury (21 DAT) ([3]; 25 g ai/ha icafolin): 31.9% | Percent Injury 15 DAT [4, 21]: 42% | Percent injury 21 DAT [4, 21]: 59% | Percent Injury 15 DAT [4, 22]: 74% | Percent injury 21 DAT [4, 22]: 80% | Percent Injury 15 DAT [4, 23]: 41% | Percent injury 21 DAT [4, 23]: 52% | Percent Injury 15 DAT [4, 24]: 69% | Percent injury 21 DAT [4, 24]: 80% | Tolerance to icafolin ([4]; in vivo): did not show any noticeable tolerance
